The values that follow come from paper PMC10611828 (European Journal of Nuclear Medicine and Molecular Imaging, 2023).

Details of data set [1]: method as in PMID 35027371, PMID 28644732. The conditions noted are these: compared with RM2; cited from earlier work.
A short description of data set [2]: Stability in human serum at 37 °C (radio-HPLC). Format: in vitro ADME. The note with it: 0 h. Here is the method:
(§1) The ^177Lu-labeled peptides were incubated in 300-μL phosphate buffered saline (PBS; Gibco, ThermoFisher, The Netherlands) at 37 °C, and their stability was verified after 1, 4, 24, 48, and 72 h by radio-HPLC (Supplementary Fig. 2). The stability in serum was determined by incubating the radiolabeled compounds into 300 μL of mouse serum (Invitrogen, USA) or human serum (Sigma Aldrich, USA) at 37 °C (Supplementary Fig. 3, 4). At each time point post-incubation, 35 μL of the mixture was added to an Eppendorf tube, and the proteins were precipitated by adding an equal volume of acetonitrile. The tubes were centrifuged at 16,000 rpm, 4 °C for 20 min, and the stability was monitored by radio-HPLC, expressed as the RCP at the different time points.

Data set [3] in a line: Stability in mouse serum at 37 °C (radio-HPLC). The data set is classed as in vitro ADME. The conditions noted are these: 0 h. How it is done:
as §1

The next data set relates to PC-3 cells. The data set can be described thus: Uptake and specificity in PC-3 cells. The data set is classed as cell-based, human. The note with it: 1 h 37 °C. How it is done:
PC-3 cells were seeded at 2.5 × 10^5 cells/well into 12 well plates 18–24 h prior to the experiment. […] Hereafter, cells were washed twice with PBS and subsequently lysed with 0.1 M NaOH for 20 min at room temperature (RT). The cell lysates were collected and measured using a gamma counter (1480 WIZARD automatic γ-counter, PerkinElmer, The Netherlands). […] Hereafter, cells were washed twice with cold PBS and lysed with 0.1 M NaOH for 20 min at RT. The cell lysates were collected and measured to determine the amount of radioactivity in a gamma counter. To correct for cell density, cells from two separate wells were counted (Countess counter, Invitrogen, The Netherlands), and data was expressed as percentage of added dose (AD) per 2.5 × 10^5 cells.

On the set-up of data set [4]: method as in PMID 31482426. The conditions noted are these: all patients; cited from earlier work.
A short description of data set [5]: Stability in PBS at 37 °C (radio-HPLC). Format: physicochemical. Here is the method:
as §1

Where only a bound is given, the exact number is not on record here.

As to `CC(C)CC(CC(C)C)NC(=O)[C@H](Cc1cnc[nH]1)NC(=O)CNC(=O)[C@@H](NC(=O)[C@H](C)NC(=O)[C@H](Cc1c[nH]c2ccccc12)NC(=O)[C@H](CCC(N)=O)NC(=O)[C@@H](Cc1ccccc1)NC(=O)COCC(=O)Nc1ccc(CNC(=O)CN2CCN(CC(=O)O)CCN(CC(=O)O)CCN(CC(=O)O)CC2)cc1)C(C)C` [NeoB, DOTA-pADA-D-Phe-Gln-Trp-Ala-Val-Gly-His-NH-CH[CH2-CH(CH3)2]2], in data set [1], the “lipophilicity (structure and LogD)” value is reported as “more lipophilic”.
Regarding `CC(C)C[C@H](NC(=O)C[C@H](O)[C@H](CC(C)C)NC(=O)[C@H](Cc1c[nH]cn1)NC(=O)CNC(=O)[C@@H](NC(=O)[C@H](C)NC(=O)[C@H](Cc1c[nH]c2ccccc12)NC(=O)[C@H](CCC(N)=O)NC(=O)[C@@H](Cc1ccccc1)NC(=O)CN1CCC(NC(=O)CN2CCN(CC(=O)O)CCN(CC(=O)O)CCN(CC(=O)O)CC2)CC1)C(C)C)C(N)=O` [[^177Lu]Lu-RM2] [metal not drawn], the “intact radiolabeled ligand (RCP)” value is reported as 97.4 ± 0.3% in data set [2]; 97.4 ± 0.3% in data set [3]; 97.4 ± 0.3% in data set [5] (0 h); 97.8 ± 0.4% in data set [5] (1 h); 96.7 ± 0.5% in data set [5] (4 h); 95.6 ± 0.3% in data set [5] (24 h). The “intact radiolabeled ligand (RCP)” value came to 87.6 ± 0.6% in data set [5] (48 h) and 80.4 ± 0.8% in data set [5] (72 h). For the same compound, in the data set with PC-3 cells (10^-9 M + 10^-6 M Tyr^4-BBN), the “uptake in the presence of Tyr^4-BBN” value was less than 1 % AD. Further, the uptake in the data set on PC-3 cells (10^-9 M, per 2.5 × 10^5 cells) is on record as 10.96 ± 3.46 % AD. Besides, the tolerability in patients result in data set [4] is reported as “well tolerated”.
